Experimental findings from patent US20120065228A1, “COMPOSITIONS AND METHODS FOR TREATING, CONTROLLING, REDUCING, OR AMELIORATING OCULAR INFLAMMATORY WITH LOWER RISK OF INCREASED INTRAOCULAR PRESSURE” (priority 2007, published 2012) are described below.

This assay concerns pain following cataract surgery. As to the kind of experiment: Clinical dose ranging study after cataract surgery: Grade 0 pain. It counts as in vivo, human. The source says:
There were 8 treatment groups in this study, consisting of three drug doses, vehicle and three dosing frequencies (see also Table 4-1): • Group A: 1% BOL-303242-X ophthalmic suspension, two times per day (BID) • Group B: 2% BOL-303242-X ophthalmic suspension, one time per day (QD) • Group C: 2% BOL-303242-X ophthalmic suspension, BID • Group D: 2% BOL-303242-X ophthalmic suspension, four times per day (QID) • Group E: 3% BOL-303242-X ophthalmic suspension, QD • Group F: 3% BOL-303242-X ophthalmic suspension, BID • Group G: 3% BOL-303242-X ophthalmic suspension, QID • Group H: Vehicle for BOL-303242-X (divided equally into QID, BID, and QD)
At Visit 3 (postoperative Day 1, 18 to 34 hours following surgery), subjects meeting all eligibility criteria were randomized to one of the treatment groups continuing to be studied, including vehicle, in a 1:1 ratio.
Subjects self-administered study drug, instilling 1 to 2 drops of study drug into the study eye: QID at approximately 4 hour intervals, BID at approximately 12 hour intervals, or QD once in the morning, for 14 days. The initial dose occurred in the clinic at Visit 3 and the final dose was on the day before Visit 6 (postoperative Day 15±1 day). Subjects were examined and evaluated according to the following schedule:
Visit 1 (screening), Visit 2 (cataract surgery), Visit 3 (postoperative Day 1), Visit 4 (postoperative Day 3±1 day), Visit 5 (postoperative Day 8±1 day), Visit 6 (postoperative Day 15±1 day), Visit 7 (postoperative Day 18±1 day). Subject assessments included adverse events (AEs), concomitant medications, ocular symptoms, pinholed Snellen visual acuity (VA), intraocular pressure (IOP), ocular signs (biomicroscopy), fundoscopy, and study drug drop sensation. In addition, subject diaries were collected and reviewed for accuracy and treatment compliance.
Secondary Efficacy: The secondary efficacy endpoints for this study were the proportions of subjects with Grade 0 pain at Visit 5 (postoperative Day 8) and at each visit, complete resolution of AC cells at each visit, complete resolution of AC cells and flare at each visit, complete resolution of AC flare at each visit, change from baseline to each follow-up visit in AC cells and AC flare combined and separately, ocular symptoms.

Regarding `Cc1ccc2c(NCC(O)(CC(C)(C)c3cc(F)cc4c3OCC4)C(F)(F)F)cccc2n1` (centres unmarked) [BOL-303242-X], the “Proportion of subjects with Grade 0 pain” value is, setting by setting: (1% BID, Visit 6 (postoperative Day 15)) 61.7%; (1% BID, Visit 7 (postoperative Day 18)) 61.7%; (2% BID, Visit 6 (postoperative Day 15)) 57.1%; (2% BID, Visit 7 (postoperative Day 18)) 53.6%; (2% QD, Visit 6 (postoperative Day 15)) 57.1%; (2% QD, Visit 7 (postoperative Day 18)) 57.1%. In addition, the “Proportion of subjects with Grade 0 pain” value by setting is: (2% QID (printed 296 QID), Visit 5 (postoperative Day 8)) 78.396%; (2% QID, Visit 4 (postoperative Day 3)) 73.3%; (2% QID, Visit 6 (postoperative Day 15)) 75.0%; (2% QID, Visit 7 (postoperative Day 18)) 71.7%; (3% BID, Visit 4 (postoperative Day 3)) 70.0%; (3% BID, Visit 5 (postoperative Day 8)) 75.0%. In addition, the “Proportion of subjects with Grade 0 pain” value was determined as 68.3% (3% BID, Visit 6 (postoperative Day 15)); 81.4% (3% QD, Visit 4 (postoperative Day 3)); 71.2% (3% QD, Visit 5 (postoperative Day 8)); 71.2% (3% QD, Visit 6 (postoperative Day 15)); 66.1% (3% QD, Visit 7 (postoperative Day 18)); 66.7% (3% QID, Visit 4 (postoperative Day 3)). Also, the “Proportion of subjects with Grade 0 pain” value is recorded as 70.0% (3% QID, Visit 5 (postoperative Day 8)) and 70.0% (3% QID, Visit 6 (postoperative Day 15)).
